{"source": "patent US20050196806A1", "about": "“Prostate specific antigen oligoepitope peptide” (The Government of the USA, as represented by the Secretary, …, priority 1996, published 2005)", "key": {"CIR-A2 cells": {"test_system": "CIR-A2 cells", "test": "CTL activity of PSA-OP specific T cell lines against peptide pulsed CIR-A2 cells", "format": "cell-based, human", "conditions": "effector T/PSA-OP-1; 50 μg/ml peptide for 3 h; 18 h CTL assay; E:T ratio 25:1; No peptide 7.9(2.7)", "protocol": "Peripheral blood mononuclear cells (PBMCs) were obtained from heparinized blood of healthy HLA-A2 donors using a lymphocyte separation medium gradient (Organon Technika, Durham, N.C.). The mononuclear cell fraction was washed 3 times and PBMCs were resuspended in complete medium: AIM V (Life Technologies, Inc.) supplemented with 5% human AB serum (Valley Biomedical, Winchester, Va.), 2 mM glutamine, 100 U/ml of penicillin, and 100 μg/ml of streptomycin (GIBCO). Cells (2×10^5) in complete medium in a volume of 100 μl were put into each well of a 96-well flat-bottom assay plate (Corning, Costar Corp., Cambridge, Mass.). Peptides were added to cultures at a final concentration of […]. Cultures were incubated for 5 days at 37° C. in a humidified atmosphere containing 5% CO2. […]\nVarious target cells were labeled with 50 μCi of ^111In-oxyquinoline (Medi-Physics Inc., Arlington, Ill.) for 15 minutes at room temperature. […] Determinations were carried out in triplicate and standard deviations were calculated. […] Specific Lysis was calculated using the following formula: % of Specific Release=observed release(cpm)−spontaneous release(cpm) total releae(cpm)−spontaneous release(cpm)×100\nSpontaneous release was determined from wells to which 100 μl of complete medium, instead of effector cells was added. Total releasable radioactivity was obtained after treatment of target cells with 2.5% Triton X-100."}, "[1]": {"molecular_target": "T1, HLA class-I A2001 molecule (Homo sapiens, UniProt P04439, D140Y/D185E/D98H/E176V/E277Q/G131W/G231S/I119V/I121R/I166T/I218V/L300P/L318F/N151K/N90K/P208A/P217A/Q86G/Q94H/R138H/R169H/T345S)", "T1 construct": "endogenous in cells; host or cells: T2 cells (174CEM.T2, transport deletion mutant)", "test": "Peptide binding to HLA-A2: upregulation on T2 cells by flow cytometry (Example IV)", "conditions": "T2 cells incubated 24 h with peptide 50 μg/ml/10^6 cells; 100 cut off value for positivity; None = 16.88", "quoted_text": "1×10^6 cells in serum-free IMDM were incubated with peptides at the concentration of 50 μg/ml in 24-well culture plates at 37° C. in 5% CO2. Flow cytometry for peptide binding was performed using T2 cells and single color analysis. After cells were washed three times in DPBS as above, they were incubated for 1 hr with HLA-A2 specific MAb A2,69 (One lambda, Inc., Canoga Park, Calif.), using 10 μl of a 1× working dilution per 10^6 cells. MOPC-21 (Cappel/Organon Teknika Corp.) was used as isotype control. The cells were then washed three times and incubated with 1:100 dilution of fluorescein (FITC) labeled anti-mouse IgG (Kirkegaard & Perry, Gaithersburg, Md.). Analysis was carried out using the FACScan as described above. Cells were maintained on ice during all cell preparation and staining unless otherwise stated."}, "NK target K562": {"test_system": "NK target K562", "test": "Cytotoxic assay of PSA peptide specific T cells against K562", "format": "cell-based, human", "conditions": "T-Donor A T-cell line; 24 hour assay, E:T ratio 25:1", "description": "Four of the T cell lines derived from three different individuals were then assays for their ability to lyse human cells (Table 9). […] No lysis was seen using the PSA negative human colon cancer cell line COLO-205. While 80% lysis was seen using the LNCAP PSA expressing human prostate cancer cell line. When employing the NK target K562, which measures non-specific lysis due to NK cell activity, only 23% lysis was obtained. Similar results were seen employing a different T cell line obtained from the same patient which was derived from pulsing with PSA peptide 154-163. Two additional T cell lines which were derived from peptide 154-163 were also analyzed. One was from a normal donor (T-1538) and one was from a prostate cancer patient (T-PC2; T Donor C)."}}}
{"sequence": "FLTPKKLQCV [PSA-1, ID No. 1]", "values": [{"measurement": "% of Specific release (SD), CIR-A2 cells pulsed with the peptide", "setting": "CIR-A2 cells", "result": "8.4(4.0) %"}, {"measurement": "T2 binding: relative fluorescence (mean intensity) with anti-HLA-A2 mAb", "setting": "[1]", "result": 127.73}, {"measurement": "% specific release (lysis), K562", "setting": "NK target K562", "result": 23, "unit": "%"}]}
